Measurements reported in patent US6541621B1, “Hypoxia inducible promoter” (Purdue University Research Foundation, priority 1997, dated 2003).
“Also recorded” adds a separate entry of the source.

Columns and labels:
rice suspension cells [1] = experiment: GUS activity of promoter-uidA construct shot into rice suspension cells; format: cell-based; conditions: 2.38 kb region fused to the uidA gene
pdc genes = experiment: Northern blot of total RNA from suspension cells under anaerobic conditions with or without cycloheximide, common pdc probe; format: cell-based, rice; conditions: 100 μM cycloheximide, suspension cells (Radon variety)
Protocol: Two-week-old uniform seedlings of rice (IR54 variety) were transferred to two liter flasks and subjected to anaerobic conditions. Seedlings were submerged in distilled water through which nitrogen gas was continuously bubbled. The anaerobic treatment was conducted in the dark at 25° C. Control seedlings were maintained in the dark at 25° C. Tissues were harvested and immersed in liquid nitrogen. Extraction of RNA was carried out according to the procedure of Logmann et al. (Anal Biochem 163: 16-20, 1987) with modifications. The frozen tissue (2 gm) was ground in liquid nitrogen in an autoclaved mortar and pestle, and transferred to autoclaved plastic centrifuge tubes. Extraction buffer (4M guanidine hydrochloride, 20 mM MES, 20 mM EDTA, 4 ml/g tissue) was added to each tube. After vigorous shaking and complete mixing the suspension was extracted once with phenol:chloroform:isoamyl alcohol (25:24:1) and centrifuged for 45 minutes at room temperature at 10,000 rpm in a Beckman centrifuge using JA-20 rotor. […] The RNA sample was subsequently washed with 80% ethanol and dissolved in DEPC-water after drying, and quantified spectrophotometrically. […]

[2] = system: Alcohol dehydrogenase (Adh) gene; experiment: Northern blot of total RNA from suspension cells with or without cycloheximide, maize Adh probe; format: cell-based, rice; conditions: for Adh transcripts: cycloheximide in the presence of O2, suspension cells
Protocol: Two-week-old uniform seedlings of rice (IR54 variety) were transferred to two liter flasks and subjected to anaerobic conditions. Seedlings were submerged in distilled water through which nitrogen gas was continuously bubbled. The anaerobic treatment was conducted in the dark at 25° C. Control seedlings were maintained in the dark at 25° C. Tissues were harvested and immersed in liquid nitrogen. Extraction of RNA was carried out according to the procedure of Logmann et al. (Anal Biochem 163: 16-20, 1987) with modifications. The frozen tissue (2 gm) was ground in liquid nitrogen in an autoclaved mortar and pestle, and transferred to autoclaved plastic centrifuge tubes. Extraction buffer (4M guanidine hydrochloride, 20 mM MES, 20 mM EDTA, 4 ml/g tissue) was added to each tube. After vigorous shaking and complete mixing the suspension was extracted once with phenol:chloroform:isoamyl alcohol (25:24:1) and centrifuged for 45 minutes at room temperature at 10,000 rpm in a Beckman centrifuge using JA-20 rotor. Then 0.2 volumes of 1 M acetic acid [diethyl pyrocarbonate (DEPC) -treated] were added to the supernatant to acidify the contents, and the RNA was precipitated by adding 0.7 volumes of ethanol after 1 hour incubation at −80° C. following centrifugation at 10,000 rpm for 10 minutes. The RNA pellet was subsequently dissolved in DEPC-treated water and reprecipitated using ⅓ volume of 8 M LiCl (overnight at 4° C.). The RNA sample was subsequently washed with 80% ethanol and dissolved in DEPC-water after drying, and quantified spectrophotometrically. Suspension cultures of Radon variety were also treated in the same way under anaerobic conditions. Cycloheximide was added at a final concentration of 100 μM, and anaerobic conditions were applied for various time periods after 30 minutes pretreatment. RNA was isolated using the same procedure described above.
Ten μg of total RNA isolated from suspension cells (Radon variety) was loaded in each lane and was resolved in 1.2% formaldehyde-agarose gel according to standard procedures. […]

rice suspension cells [3] = experiment: Protein synthesis in rice suspension cells; format: cell-based; conditions: cycloheximide at 20 to 300 μM

Compound | GUS activity (rice suspension cells [1]) | induction of pdc genes (pdc genes) | induction of Adh gene ([2]; 100 μM cycloheximide, anaerobic conditions, suspension cells) | Adh transcripts [2] | Adh transcripts ([2]; listed as Cycloheximide) | protein synthesis (rice suspension cells [3])
2.38 kb region: about 2.38 kb 5' upstream region of the rice pdc2 gene (hypoxia inducible promoter), fused to the uidA gene | showed GUS activity | – | – | – | – | –
C[C@@H]1C[C@@H]([C@H](O)CC2CC(=O)NC(=O)C2)C(=O)[C@@H](C)C1 [cycloheximide] | – | reduce the induction of pdc genes; also recorded: reduced induction | down-regulated; also recorded: reduced induction | induced Adh transcripts | induced Adh messages | reduce protein synthesis
